Results as given in PMC7679302 (Environmental Science and Pollution Research International, 2020).
Marks after values point to notes of the source that are not given here.

How the values were obtained:
[1] = Acute 48 h aqueous toxicity test with glochidia (viability); assay type: in vivo, Lampsilis siliquoidea; conditions: Lampsilis siliquoidea, in vivo
Excerpt: (§1) Aqueous acute toxicity tests were based on the American Society for Testing and Materials (ASTM [2013]) protocols for conducting toxicity tests with early life stages of freshwater mussels. Gravid female L. siliquoidea were collected from an established reference site in the Maitland River (ON) and kept in ECCC’s Aquatic Life Research Facility (Canada Centre for Inland Waters, Burlington, ON). Glochidia were removed from gravid females and their viability (i.e., ability to close their valves) was assessed. Glochidia from a minimum of three gravid mussels whose glochidia exceeded 90% viability were pooled and exposed to a geometric series of nominal concentrations (0, 0.0025, 0.025, 0.25, 2.5, 25 mg/L) of either FIN or MGA plus a solvent control. Tests were conducted in 250-mL glass beakers (unaerated and unfed) with culture water. After 24 and 48 h of exposure, glochidia viability was assessed in a minimum of 100 glochidia per replicate (four replicates). Water samples were collected at the beginning and end of the tests, and frozen pending chemical analysis.

[2] = test system: Lampsilis siliquoidea glochidia; assay: as above; assay type: in vivo; conditions: Lampsilis siliquoidea, in vivo, 48 h
Excerpt: as §1

[3] = test system: juvenile Lampsilis siliquoidea; assay: Chronic 28-day spiked sediment test with juvenile mussels (survival, burial ability); conditions: for Burial ability (percent of surviving mussels), mean (SEM) / Survival (percent of initial animals added), mean (SEM): n = 5
Excerpt: Freshwater mussels (L. siliquoidea, 6–8 months old, ~ 1 cm in length) were purchased from Missouri State University (Springfield, MO, USA).

[4] = test system: amphipod Hyalella azteca; assay: Chronic 42-day sediment test with amphipods (survival, growth, reproduction, sex ratio); conditions: for Females (percent of surviving amphipods), mean (SEM) / Survival (percent of initial animals added), mean (SEM): n = 10
Method: Dechlorinated municipal tap water was used for cultures and toxicity tests. Both cultures and toxicity tests were held at 25 °C with a photoperiod of 16 h light:8 h dark, and amphipods were fed finely ground Tetra-Min fish food flakes (Tetra GMBH, Melle, Germany). Juvenile amphipods were removed weekly from breeding containers and used in toxicity tests.
Two tests were conducted for each compound. Amphipods were fed ground Tetra-Min twice per week during weeks 1 and 2, three times during week 3, and 5 mg three times per week during weeks 4 to 6. Surviving adults were counted, weighed as a group, and examined under a dissecting microscope to identify males (enlarged second gnathopods) and females, and the number of juveniles was recorded.

[5] = test system: juvenile mussels L. siliquoidea; assay: 21 d range-finding sediment test, juvenile mussels; assay type: in vivo; conditions: n = 3
Method: (§2) Range-finding tests of 21 d were completed with juvenile mussels, amphipods and mayflies to assist with the selection of the concentrations to be used in final testing. Nominal concentrations in range-finding tests were 0.1, 1, 10, 100, and 1000 mg/kg, based on dry weight of sediment. Range-finding test conditions were identical to those described in the manuscript for chronic sediment tests with the exception of test duration.
After 21 d, mussels were recovered and transferred to Petri dishes filled with clean sand and housed in large trays of aerated culture water to assess burial ability.

[6] = test system: amphipods H. azteca; assay: 21 d range-finding sediment test, amphipods; assay type: in vivo, Hyalella azteca; conditions: n = 3
Method: as §2
Amphipods were fed 2.5 mg Tetra-min twice per week during weeks one and two, and three times during week three. At the end of the test, amphipods were removed and the survivors were counted and weighed.

[7] = test system: mayflies Hexagenia spp.; assay: 21 d range-finding sediment test, mayflies; assay type: in vivo; conditions: n = 3
Method: as §2
At the end of the test, survival and wet weight of mayflies in each replicate were recorded.

[8] = test system: mayfly Hexagenia spp.; conditions: Hexagenia spp. (mixture of H. rigida and H. limbata), in vivo, 42 days, pH 8.3
Method: (§3) Nominal concentrations were 10, 30, 100, 300, and 1000 mg/kg for juvenile freshwater mussels and 3, 10, 30, 100, and 300 mg/kg for amphipods and mayflies, and were based on the results of range-finding tests (detailed in Supplementary Materials). […] For each PPCP, the concentration of solvent used was consistent across treatments.
(§4) The sediments were mixed for 24 h, left open in a fume hood for 3–5 days for the acetone to evaporate, and then stored at 4 °C until use. […] All beakers were aerated for 1 week under testing conditions prior to the addition of organisms, and throughout the tests. Duration of toxicity tests varied depending on the species and endpoint of interest (see below). Water quality parameters were collected for each test (Table S1).
(§5) Briefly, eggs of Hexagenia spp. […] Prior to testing, eggs were hatched and nymphs were grown in aerated 20-L aquaria containing culture sediment (depth: 2.5 cm) and culture water (depth: 10 cm) for 6 to 7 weeks.
(§6) Ten mayflies (5–8 mg wet weight) were added to each beaker (three replicates for each control and PPCP concentration). Two tests were conducted for each compound. […] At the end of the test, mayflies were removed and surviving animals from each of the three replicates were counted and weighed.

[9] = test system: rainbow trout (Oncorhynchus mykiss); conditions: ref FDA-CDER [1996]; cited from earlier work
[10] = test system: Daphnia magna; conditions: ref FDA-CDER [1996]; cited from earlier work
[11] = test system: mayfly Hexagenia spp.; assay: Chronic 42-day sediment test with mayflies (survival, growth); conditions: measured, n = 6
Method: as §3, §4, §5, §6

[12] = test system: Japanese medaka (Oryzias latipes); design: method as in Lalone et al. [2013]; conditions: 21-day exposure; ref Lalone et al. [2013]; cited from earlier work
[13] = test system: fathead minnow (Pimephales promelas); design: method as in Lalone et al. [2013]; conditions: 21-day exposure; ref Lalone et al. [2013]; cited from earlier work
[14] = test system: Daphnia magna; design: method as in Lalone et al. [2013]; conditions: 21-day exposure to as much as 500 μg/L; ref Lalone et al. [2013]; cited from earlier work
[15] = finasteride 4 mg/kg dw sediment (0.03 mg/L water), measured
[16] = finasteride 11 mg/kg dw sediment (0.1 mg/L water), measured
[17] = finasteride 35 mg/kg dw sediment (0.5 mg/L water), measured
[18] = finasteride 96 mg/kg dw sediment (2 mg/L water), measured
[19] = finasteride 430 mg/kg dw sediment (20 mg/L water), measured
[20] = survival, dry weight sediment, measured
[21] = survival, overlying water, measured
[22] = finasteride 1 mg/kg dw sediment (0.003 mg/L water), measured, 42-day
[23] = finasteride 4 mg/kg dw sediment (0.03 mg/L water), measured, 42-day
[24] = finasteride 11 mg/kg dw sediment (0.1 mg/L water), measured, 42-day
[25] = finasteride 35 mg/kg dw sediment (0.5 mg/L water), measured, 42-day
[26] = finasteride 96 mg/kg dw sediment (2 mg/L water), measured, 42-day
[27] = survival, growth, 42-day, dry weight sediment, measured

CC(C)(C)NC(=O)[C@H]1CC[C@H]2[C@@H]3CC[C@H]4NC(=O)C=C[C@]4(C)[C@H]3CC[C@]12C [Finasteride]
viability at 48 h, 0.003 mg/L [1]: 90%
viability at 48 h, 0.03 mg/L [1]: 87%
viability at 48 h, 0.3 mg/L [1]: 87%
viability at 48 h, 2.5 mg/L [1]: 88%
viability at 48 h, 23 mg/L [1]: 85%
ChV (geometric mean of NOEC and LOEC) [2]: 7.6 mg/L
LOEC [2]: 23 mg/L^a
NOEC [2]: 2.5 mg/L
Burial ability (percent of surviving mussels), mean (SEM) [3, 15]: 90 (5.5) %
Survival (percent of initial animals added), mean (SEM) [3, 15]: 94 (2.4) %
Burial ability (percent of surviving mussels), mean (SEM) [3, 16]: 98 (2.0) %
Survival (percent of initial animals added), mean (SEM) [3, 16]: 94 (4.0) %
Burial ability (percent of surviving mussels), mean (SEM) [3, 17]: 88 (4.0) %
Survival (percent of initial animals added), mean (SEM) [3, 17]: 98 (2.0) %
Burial ability (percent of surviving mussels), mean (SEM) [3, 18]: 82 (5.5) %
Survival (percent of initial animals added), mean (SEM) [3, 18]: 72 (8.6)^d %
Burial ability (percent of surviving mussels), mean (SEM) [3, 19]: 0 (0)^d %
Survival (percent of initial animals added), mean (SEM) [3, 19]: 10 (5.5)^d %
Overlying water concentration at which both survival and burial ability were reduced ([3]; measured): 20 mg/L
Sediment concentration at which both survival and burial ability were reduced ([3]; measured): 430 mg/kg
ChV, sediment ([3]; survival, dry weight sediment): 58 mg/kg
LOEC, sediment [3, 20]: 96 mg/kg
NOEC, sediment [3, 20]: 35 mg/kg
ChV, overlying water ([3]; survival, overlying water): 1 mg/L
LOEC, overlying water [3, 21]: 2 mg/L
NOEC, overlying water [3, 21]: 0.5 mg/L
Survival, % of pooled controls ([4]; 96 mg/kg (2 mg/L) FIN, 42-day): 65%
NOEC, overlying water ([4]; Hyalella azteca, in vivo, 42 days, pH 8.3): 0.5 mg/L
Females (percent of surviving amphipods), mean (SEM) [4, 22]: 57 (4.2) %
Survival (percent of initial animals added), mean (SEM) [4, 22]: 96 (1.4) %
Females (percent of surviving amphipods), mean (SEM) [4, 23]: 53 (3.0) %
Survival (percent of initial animals added), mean (SEM) [4, 23]: 93 (1.7) %
Females (percent of surviving amphipods), mean (SEM) [4, 24]: 50 (4.4) %
Survival (percent of initial animals added), mean (SEM) [4, 24]: 94 (1.7) %
Females (percent of surviving amphipods), mean (SEM) [4, 25]: 52 (2.7) %
Survival (percent of initial animals added), mean (SEM) [4, 25]: 92 (2.0) %
Females (percent of surviving amphipods), mean (SEM) [4, 26]: 69 (4.4)^d %
Survival (percent of initial animals added), mean (SEM) [4, 26]: 63 (8.3)^d %
ChV, sediment ([4]; survival, growth, 42-day, dry weight sediment): 58 mg/kg
LOEC, sediment [4, 27]: 96 mg/kg
NOEC, sediment [4, 27]: 35 mg/kg
ChV, overlying water ([4]; survival, growth, 42-day, overlying water): 1 mg/L
LOEC, overlying water ([4]; survival, growth, 42-day, overlying water, measured): 2 mg/L
Burial (%), mean (SEM) ([5]; 0.1 mg/kg dry weight nominal): 72 (6.3) %
Survival (%), mean (SEM) ([5]; 0.1 mg/kg dry weight nominal): 100 (0.0) %
Burial (%), mean (SEM) ([5]; 1 mg/kg dry weight nominal): 93 (3.3) %
Survival (%), mean (SEM) ([5]; 1 mg/kg dry weight nominal): 100 (0.0) %
Burial (%), mean (SEM) ([5]; 10 mg/kg dry weight nominal): 87 (6.7) %
Survival (%), mean (SEM) ([5]; 10 mg/kg dry weight nominal): 100 (0.0) %
Burial (%), mean (SEM) ([5]; 100 mg/kg dry weight nominal): 90 (0.0) %
Survival (%), mean (SEM) ([5]; 100 mg/kg dry weight nominal): 100 (0.0) %
Burial (%), mean (SEM) ([5]; 1000 mg/kg dry weight nominal): 77 (5.1) %
Survival (%), mean (SEM) ([5]; 1000 mg/kg dry weight nominal): 53 (6.7)^a %
Growth, mean (SEM) ([6]; 0.1 mg/kg dry weight nominal): 1.1 (0.12) mg wet weight
Survival (%), mean (SEM) ([6]; 0.1 mg/kg dry weight nominal): 100 (0.0) %
Growth, mean (SEM) ([6]; 1 mg/kg dry weight nominal): 1.1 (0.04) mg wet weight
Survival (%), mean (SEM) ([6]; 1 mg/kg dry weight nominal): 100 (0.0) %
Growth, mean (SEM) ([6]; 10 mg/kg dry weight nominal): 1.2 (0.05) mg wet weight
Survival (%), mean (SEM) ([6]; 10 mg/kg dry weight nominal): 100 (0.0) %
Growth, mean (SEM) ([6]; 100 mg/kg dry weight nominal): 0.79 (0.06) mg wet weight
Survival (%), mean (SEM) ([6]; 100 mg/kg dry weight nominal): 100 (0.0) %
Survival (%), mean (SEM) ([6]; 1000 mg/kg dry weight nominal): 0^a (0.0) %
Growth, mean (SEM) ([7]; 0.1 mg/kg dry weight nominal): 30 (0.5) mg wet weight
Survival (%), mean (SEM) ([7]; 0.1 mg/kg dry weight nominal): 100 (0.0) %
Growth, mean (SEM) ([7]; 1 mg/kg dry weight nominal): 30 (0.6) mg wet weight
Survival (%), mean (SEM) ([7]; 1 mg/kg dry weight nominal): 100 (0.0) %
Growth, mean (SEM) ([7]; 10 mg/kg dry weight nominal): 31 (0.3) mg wet weight
Survival (%), mean (SEM) ([7]; 10 mg/kg dry weight nominal): 100 (0.0) %
Growth, mean (SEM) ([7]; 100 mg/kg dry weight nominal): 29 (1.3) mg wet weight
Survival (%), mean (SEM) ([7]; 100 mg/kg dry weight nominal): 93 (3.3)^a %
Growth, mean (SEM) ([7]; 1000 mg/kg dry weight nominal): 4.5^a,^d (0.0) mg wet weight
Survival (%), mean (SEM) ([7]; 1000 mg/kg dry weight nominal): 3.3^a (3.3) %
ChV, overlying water [8]: 1 mg/L
LOEC, overlying water [8]: 2 mg/L
LOEC, sediment [8]: 96 mg/kg
NOEC, overlying water [8]: 0.5 mg/L
NOEC, sediment [8]: 35 mg/kg
96-h LC50 [9]: 20 mg/L
96-h LC50 [10]: 21 mg/L
Survival (percent of initial animals added), mean (SEM) ([11]; finasteride 1 mg/kg dw sediment (0.003 mg/L water)): 98 (1.7) %
Survival (percent of initial animals added), mean (SEM) ([11]; finasteride 4 mg/kg dw sediment (0.03 mg/L water)): 97 (2.1) %
Survival (percent of initial animals added), mean (SEM) ([11]; finasteride 11 mg/kg dw sediment (0.1 mg/L water)): 100 (0.0) %
Survival (percent of initial animals added), mean (SEM) ([11]; finasteride 35 mg/kg dw sediment (0.5 mg/L water)): 90 (2.6)^d,i %
Survival (percent of initial animals added), mean (SEM) ([11]; finasteride 96 mg/kg dw sediment (2 mg/L water)): 97 (2.1) %

CC(=O)S[C@@H]1CC2=CC(=O)CC[C@]2(C)[C@H]2CC[C@@]3(C)[C@@H](CC[C@@]34CCC(=O)O4)[C@H]12 [spironolactone]
Concentration that reduced fecundity [12]: 50 µg/L
Concentration that reduced fecundity [13]: 50 µg/L
Effect on reproduction [14]: no effect
